According to EP1235833B1 (GLAXO GROUP LIMITED, priority 1999, dated 2001):

Assay: Acid stability: acid-mediated hydrolytic decomposition, simulated stomach conditions, HPLC
Assay type: physicochemical
Conditions: for Compound left (%): 0.3 mg/mL in dilute hydrochloric acid at pH 1, 25°C
Experimental: Compounds were tested for their stability towards acid-mediated hydrolytic decomposition employing a test designed to simulate stomach conditions. Each compound was incubated at an initial concentration of 0.3 mg/mL in dilute hydrochloric acid at pH 1 for 24 hours at 25°C. HPLC was run immediately for t=0 and at intervals up to approximately 24 hours. The results for compounds of Example 2, part b, Example 9, and for comparative phosphoramidates of 2',3'-dideoxy-adenosine (Compound 1093) and 2',3'-didehydro-2',3'-dideoxy-adenosine (Compound 1001), described in W096/29336A, are given in the table below.

With `COC(=O)C(C)(C)NP(=O)(OC[C@@H]1C=C[C@H](n2cnc3c(NCC4CC4)nc(N)nc32)C1)Oc1ccccc1` (relative stereo) [Example 9] the “Compound left (%)” value (Time 0 hr) was 100%, the “Compound left (%)” value (Time 13 hr) was 96% and the “Compound left (%)” value (Time 24 hr) was 94%. The “Acid stability in words” value (after 24 hours, dilute hydrochloric acid at pH 1, 25°C) was “remained intact”.
